Data reported in patent US7943633B2, “Alkaloid compounds and their use as anti-malarial drugs” (Universite Pierre et Marie Curie (Paris VI), priority 2004, dated 2011).
pIC50: −log10 of the molar value. Several values for one entry are separate records, joined by “and”; a condition that tells them apart may be missing. Equal entries are not always repeated. Where two headings read alike, the source gives them in different places.

Key:
[1] = system: Plasmodium yoelii yoelii 265BY; assay: In vitro inhibition of P. yoelii yoelii 265BY growth (hepatic stage) in primary murine hepatocytes; assay type: cell-based; conditions: for Selectivity index CI50 KB/CI50 yoelii: ratio between CI50 of cytotoxicity (KB) and CI50 of anti-malarial activity
Procedure: Primary cultures of mouse hepatocytes were isolated from livers of Swiss mice which were 6 to 8 weeks old by perfusion with collagenase (1 g/L) and purified through a 60% Percoll gradient.
The hepatocytes were cultured in sterile chambers (Lab-Tek) at the rate of 90,000 cells in 0.3 mL of complete culture medium as defined thereafter per well and incubated overnight at 37° C. under a 4% CO2 atmosphere. The hepatocytes' complet culture medium was Williams' E culture medium supplemented with 10% of decomplemented foetal calf serum, 1% glutamine, 1% Na pyruvate, 1% of a mixture of insulin, transferrine and selenium, 1% of non-essential amino-acids and with an antibiotic mixture comprising 1% of a solution of penicillin and streptomycine, 1% augmentin and […] flucytosine.
The parasites infecting the hepatocytes; i.e. the sporozoites, were recovered by dissection of infected anopheles mosquitoes salivary glands.
After grinding them in a Potter grinder with culture medium, the suspension was filtered on a 40 μm mesh filter and centrifuged (15,000 rpm) at 4° C. for 2 mn. The pellet was reintroduced in the complete culture medium. The sporozoites were then counted in a “Cell Vu” counter (CML) and the concentration was adjusted at 100,000 sporozoites per 70 μL, concentration needed for infection.
One day after, the hepatocytes were infected by the above sporozoites from salivary glands of infected anopheles mosquitoes at the rate of 100,000 sporozoites per well in the presence or absence of the product to be tested. When the infection had appeared, the medium was supplemented with 10^−7 M dexamethasone. The products were first solubilized in DMSO.
The infected hepatocytes were washed and fed with culture medium containing the test product, 3 hours and then 24 hours after the infection.
The cultures were stopped by treatment with a cold fixative methanol solution, 48 hours after the infection.
Parasites obtained in schizont stage were immunomarked firstly, with a serum isolated from BALB/c mice immunized with a recombinant fragment from the N-terminal of the recombinant protein I72 that reacted against HSP70 of Plasmodium and secondly with an antibody—a mouse anti-immunoglobulin—conjugated to FITC. Evans Blue and DAPI, a nucleic acid marker, were added to the hepatocytes simultaneously. The schizonts were then counted with a fluorescent microscope.
(§1) The Cl50 value (concentration causing 50% of inhibition in the number of parasites compared to controls wells, non treated) is the mean value of 3 independent evaluations through StatView SI Graphics.

[2] = In vitro cytotoxicity, neutral red, KB cells; assay type: cell-based; conditions: human, KB carcinoma cells (ATCC CCL-17), 72 hours incubation, read-out: CI50 cytotoxicity KB (converted)
Procedure: (§2) Stock solutions of testing compounds were prepared in H2O/DMSO (9/1).
(§3) After an incubation of 72 hours at 37° C. under a 5% CO2 atmosphere, 0.02% of neutral red in PBS was added.
(§4) 24 hours later, culture media were eliminated and cell membranes were lysed by addition of 1% of SDS in water.
(§5) Cell growth was estimated by colorimetric measurement of stained living cells, incorporating neutral red. Optical density was determined at 540 nm on a Titertek Multiskan photometer.
(§6) The Cl50 value was defined as the concentration of compound necessary to inhibit the cell growth to 50% of the control.

[3] = In vitro cytotoxicity, neutral red, HT29 cells; assay type: cell-based; conditions: human, HT29 colon tumor cells (ATCC HTB-38), 72 hours incubation, read-out: CI50 cytotoxicity HT29 (converted)
Procedure: as §2, §3, §4, §5, §6

[4] = system: Plasmodium falciparum NF54; assay: In vitro inhibition of P. falciparum NF54 (hepatic stage) in human hepatocytes; assay type: cell-based; conditions: NF54, Hepatocyte, 120 h, fixed 5 days after infection, read-out: CI50 activity P. falciparum NF54
Procedure: B—Human Model: Hepatic Stage of Plasmodium falciparum NF54
Human hepatocytes were obtained by enzymatic perfusion of fragments of liver of human adults which were submitted to partial hepatectomy.
The hepatocytes were infected at 24 hours of their culture by sporozoites obtained from salivary glands of P. falciparum infecting anopheles mosquitoes stephensi (Lab. of Pr. W. Eling, Univ. Of Nijmegen, NL).
The culture medium containing the test product was changed 3 hours after infection, and then renewed at least, each 24 hours during the experiment.
The cultures were fixed 5 days after infection, with the same method as described for the murine hepatocytes.
as §1

[5] = system: Plasmodium yoelii yoelii 265BY; assay: In vivo antimalarial activity in Swiss mice infected with sporozoites; conditions: for number of parasited red blood cells (parasitemia): compared to control group; for Number of parasited mice/total mice: 100 mg/kg fed four times
Procedure: 40 Swiss mice (six week old) have been subjected to the in vivo assay. They have been allotted in two groups: • a group of 20 mice were fed with compound (1) diluted in sterile water at a dose of 100 mg/kg four times; 24 hours and 1 hour before infection, 24 hours and 40 hours after infection during the hepatic stage period. • a control group of 20 mice were fed with sterile water at the same times.
The infection has been performed by retro-orbital injection of 4,000 sporozoites of Plasmodium yoelii yoelii 265BY in 100 μl phospate-buffered saline per mouse.
The parasitemia was monitored from the third day after the infection D3 when the parasites are liberated from the liver and enter into the blood circulation and each day until the 23rd day D23 after infection. The monitoring was performed by blood smears taken from the tail vein of the mice. The smears were stained with Giemsa and parasited red blood cells were counted with a microscope.
The parasitemia was calculated according to the following formula: Parasited red blood cell number×100/total red blood cell number.

[6] = Plasmodium yoelii, Hepatocyte, 48 h, read-out: CI50 activity P. yoelii 265BY

| SMILES | IC50 [1, 6] | Selectivity index CI50 KB/CI50 yoelii [1] | IC50 at 72 h [2] | IC50 at 72 h [3] | further results |
| --- | --- | --- | --- | --- | --- |
| COC1=C2[C@@H]3[C@H](O)c4ccc(OC)c(O)c4[C@]2(CCN3C)C[C@H](O)[C@@H]1O [Compound (3), N-methyl-4,6,7,10-tetrahydroxy-8,14, didehydro-3,8-dimethoxy-morphinan] | 2.09 µg/mL and 5.8 µM | 15.5 | 32.3 µg/mL and 89 µM | > 80 µg/mL and > 220 µM |  |
| CCCN1CC[C@@]23C[C@H](O)[C@H](O)C(OC)=C2[C@@H]1[C@H](O)c1ccc(OC)c(O)c13 [Compound (4), N-propyl-4,6,7,10-tetrahydroxy-8,14, didehydro-3,8-dimethoxy-morphinan] | 4.93 µg/mL and 12.6 µM | 8.2 | 40.4 µg/mL and 103 µM | > 80 µg/mL and > 204 µM |  |
| COC1=C2[C@@H]3[C@H](O)c4ccc(OC)c(O)c4[C@]2(CCN3C2CCCC2)C[C@H](O)[C@@H]1O [Compound (8), N-cyclopentyl-4,6,7,10-tetrahydroxy-8,14, didehydro-3,8-dimethoxy-morphinan] | 1.46 µg/mL and 3.5 µM | 18.9 | 27.6 µg/mL and 66.3 µM | > 80 µg/mL and > 192 µM |  |
| O=c1[nH]cc(F)c(=O)[nH]1 [5-fluorouracile, reference compound] |  |  | 0.047 µg/mL and 360 nM | 54.9 µg/mL and 422 µM |  |
| COc1cc(NC(C)CCCN)c2ncccc2c1 (centres unmarked) [primaquine, reference compound] | 0.16 µg/mL and 600 nM | 11.7 | 2 µg/mL and 7 µM | 20.1 µg/mL and 70.5 µM |  |
| COC1=C2[C@H]3NCC[C@]2(C[C@H](O)[C@@H]1O)c1c(ccc(OC)c1O)[C@H]3O [Compound (1), 4,6,7,10-tetrahydroxy-8,14-didehydro-3,8-dimethoxy-morphinan] | 1.08 µg/mL and 3.1 µM | 1.8 | 1.99 µg/mL and 5.7 µM | 22 µg/mL and 63 µM | IC50 [4]: 1.51 µg/mL and 4.3 µM; number of parasited red blood cells (parasitemia) ([5]; 100 mg/kg): reduces parasitemia; number of parasited red blood cells (parasitemia) ([5]; 100 mg/kg, listed as compound (1)): significant decrease; total protection against malaria infection in mice ([5]; 100 mg/kg, oral administration): 70%; survival of mice at D23 ([5]; 100 mg/kg, control group 75%): 90%; delay of parasitemia for treated mice not protected, compared to control ([5]; 100 mg/kg, the 30% of treated mice not protected): ≥ 3 days; Number of parasited mice/total mice ([5]; D3 post-infection): 0/20; Number of parasited mice/total mice ([5]; D4 post-infection): 0/20; Number of parasited mice/total mice ([5]; D5 post-infection): 0/20; Number of parasited mice/total mice ([5]; D6 post-infection): 1/20; Number of parasited mice/total mice ([5]; D7 post-infection): 4/20; Number of parasited mice/total mice ([5]; D8 post-infection): 6/20; Number of parasited mice/total mice ([5]; D23 post-infection): 6/18 |
| COC1=C2[C@@H]3Cc4ccc(OC)c(O)c4[C@]2(CCN3)C[C@H](O)[C@@H]1O [Compound (2), 4,6,7-trihydroxy-8,14-didehydro-3,8-dimethoxy-morphinan] | 1.5 µg/mL and 4.5 µM | 0.9 | 1.3 µg/mL and 3.9 µM | 12.2 µg/mL and 36.8 µM | IC50 [4]: 3.36 µg/mL and 10.1 µM |
| O=C1C(O)=C([C@H]2CC[C@H](c3ccc(Cl)cc3)CC2)C(=O)c2ccccc21 [Atovaquone, atovaquone, reference compound] |  | 891.2 | 18.6 µg/mL and 50.8 µM | 44.6 µg/mL and 122 µM | IC50 ([1]; Plasmodium yoelii, Hepatocyte, murine hepatocytes, schizonts counted 48 hours after infection, mean of 3 evaluations, read-out: CI50 activity P. yoelii 265BY): 0.021 µg/mL; pIC50 ([1]; Plasmodium yoelii, Hepatocyte, murine hepatocytes, schizonts counted 48 hours after infection, read-out: CI50 activity P. yoelii 265BY): 7.24 |
| COC1=C2[C@@H]3[C@H](O)c4ccc(OC)c(O)c4[C@]2(CCN3Cc2ccc(Br)cc2)C[C@H](O)[C@@H]1O [Compound (7), N-4-bromobenzyl-4,6,7,10-tetrahydroxy-8,14, didehydro-3,8-dimethoxy-morphinan] | 2.19 µg/mL and 4.2 µM | 7.3 | 15.8 µg/mL and 30.5 µM | > 80 µg/mL and > 154 µM |  |
| CC[C@]1(O)C[C@@H]2CN(CCc3c([nH]c4ccccc34)[C@@](C(=O)OC)(c3cc4c(cc3OC)N(C)[C@H]3[C@@](O)(C(=O)OC)[C@H](OC(C)=O)[C@]5(CC)C=CCN6CC[C@]43[C@@H]65)C2)C1 [Vinblastine, vinblastine, reference compound] |  |  | 0.018 µg/mL and 22 nM | 0.008 µg/mL and 9.9 nM |  |
| COC1=C2[C@@H]3[C@H](O)c4ccc(OC)c(O)c4[C@]2(CCN3Cc2ccc(O)cc2)C[C@H](O)[C@@H]1O [Compound (6), N-4-hydroxybenzyl-4,6,7,10-tetrahydroxy-8,14, didehydro-3,8-dimethoxy-morphinan] | 6.44 µg/mL and 14.2 µM | 1.5 | 9.53 µg/mL and 20.9 µM | 49 µg/mL and 108 µM |  |
| COC1=C2[C@@H]3[C@H](O)c4ccc(OC)c(O)c4[C@]2(CCN3Cc2ccc(OC)cc2)C[C@H](O)[C@@H]1O [Compound (5), N-4-methoxybenzyl-4,6,7,10-tetrahydroxy-8,14, didehydro-3,8-dimethoxy-morphinan] | 11.4 µg/mL and 24.2 µM | 1.9 | 21.2 µg/mL and 45.3 µM | > 80 µg/mL and > 170 µM |  |
